In patent publication US8609836B2, “4-aryl-2-anilino-pyrimidines” (Janssen Pharmaceutica NV, priority 2008, dated 2013):

How the values were obtained:
Assay type in all cases: biochemical
[1] = target: AuroraB (h) (Homo sapiens, UniProt Q96GD4); assay: Aurora-B human kinase inhibition, SPA; conditions: read-out: AuroraB pIC50 (converted)
Outline: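 AuroraB (0.5 μg/ml) phosphorylates 3 μM biotin-peptide using 0.5 μM ATP spiked with 33P-ATP in Hepes pH 7.5 with 3 mM MgCl2 and MnCl2, for 60 min at room temperature. EDTA stop solution carries streptavidin scintillant beads, and the captured radiolabel is imaged.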

[2] = target: PLK4 (h) (Homo sapiens, UniProt O00444); assay: PLK-4 human kinase inhibition, scintillation proximity assay (SPA); conditions: read-out: PLK4 pIC50 (converted)
Chain of PLK4 (h) (O00444 whole entry): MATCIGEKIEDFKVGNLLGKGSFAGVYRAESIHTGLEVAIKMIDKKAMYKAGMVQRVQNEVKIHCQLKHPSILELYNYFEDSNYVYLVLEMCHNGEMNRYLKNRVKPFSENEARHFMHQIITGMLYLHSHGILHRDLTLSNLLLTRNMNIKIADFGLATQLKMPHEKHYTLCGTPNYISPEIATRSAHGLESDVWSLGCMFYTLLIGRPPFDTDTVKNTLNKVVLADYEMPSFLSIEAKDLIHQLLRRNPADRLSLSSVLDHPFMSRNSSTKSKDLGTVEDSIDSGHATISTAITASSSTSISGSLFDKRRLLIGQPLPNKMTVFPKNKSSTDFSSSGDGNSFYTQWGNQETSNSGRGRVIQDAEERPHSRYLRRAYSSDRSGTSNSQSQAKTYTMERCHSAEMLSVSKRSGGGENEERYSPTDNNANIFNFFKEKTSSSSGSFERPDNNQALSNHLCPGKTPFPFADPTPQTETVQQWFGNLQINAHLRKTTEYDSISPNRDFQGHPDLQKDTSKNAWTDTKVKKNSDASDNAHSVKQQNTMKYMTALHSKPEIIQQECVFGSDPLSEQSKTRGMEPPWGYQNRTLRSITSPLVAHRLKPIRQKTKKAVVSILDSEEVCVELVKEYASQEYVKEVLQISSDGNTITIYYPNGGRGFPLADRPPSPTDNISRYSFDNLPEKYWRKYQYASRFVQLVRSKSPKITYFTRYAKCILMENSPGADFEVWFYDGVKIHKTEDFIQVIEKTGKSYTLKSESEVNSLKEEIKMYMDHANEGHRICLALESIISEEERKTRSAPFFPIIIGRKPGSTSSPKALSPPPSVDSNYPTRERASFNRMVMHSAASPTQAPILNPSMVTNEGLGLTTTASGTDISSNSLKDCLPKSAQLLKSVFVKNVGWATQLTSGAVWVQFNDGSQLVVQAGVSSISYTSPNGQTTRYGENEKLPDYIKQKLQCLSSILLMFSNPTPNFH

[3] = target: CDK1/CyclinB (h) (Homo sapiens, UniProt P06493); assay: CDK1/CyclinB human kinase inhibition, Invitrogen's FRET assay (Z'lyte); conditions: read-out: CDK1 pIC50 (converted)
Chain of CDK1/CyclinB (h) (P06493 whole entry): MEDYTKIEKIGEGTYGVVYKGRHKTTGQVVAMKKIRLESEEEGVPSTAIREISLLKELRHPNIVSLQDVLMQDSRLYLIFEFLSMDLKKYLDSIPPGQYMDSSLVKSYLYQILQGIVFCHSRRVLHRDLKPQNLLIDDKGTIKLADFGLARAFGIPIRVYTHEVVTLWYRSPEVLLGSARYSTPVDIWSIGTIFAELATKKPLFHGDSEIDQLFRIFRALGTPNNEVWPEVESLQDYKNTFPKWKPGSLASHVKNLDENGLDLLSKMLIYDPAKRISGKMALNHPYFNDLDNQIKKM
Chain of CDK1/CyclinB (h) (P14635 whole entry partner): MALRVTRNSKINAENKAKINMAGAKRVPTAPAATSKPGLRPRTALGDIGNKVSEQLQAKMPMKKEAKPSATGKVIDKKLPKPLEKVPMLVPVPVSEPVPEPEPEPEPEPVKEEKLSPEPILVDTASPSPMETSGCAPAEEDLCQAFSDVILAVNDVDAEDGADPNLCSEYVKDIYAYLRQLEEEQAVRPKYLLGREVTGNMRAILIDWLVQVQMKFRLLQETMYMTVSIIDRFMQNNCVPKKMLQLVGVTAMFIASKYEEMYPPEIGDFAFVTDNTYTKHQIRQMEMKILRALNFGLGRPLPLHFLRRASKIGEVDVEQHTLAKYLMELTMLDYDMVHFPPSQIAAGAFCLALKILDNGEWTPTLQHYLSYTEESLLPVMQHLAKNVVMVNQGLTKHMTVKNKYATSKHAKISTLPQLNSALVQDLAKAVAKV
Outline: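 Read-out is the 460 nm/538 nm emission ratio (390 nm excitation) after a 60 min protease development step. Before that, 10 μM ATP and 2 μM Z'lyte Ser/Thr peptide 12 react 60 min at room temperature with 0.2 μg/ml human CDK1/CyclinB in Hepes pH 7.5 containing MgCl2, EGTA and Brij-35.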

Chain of AuroraB (h) (Q96GD4 whole entry): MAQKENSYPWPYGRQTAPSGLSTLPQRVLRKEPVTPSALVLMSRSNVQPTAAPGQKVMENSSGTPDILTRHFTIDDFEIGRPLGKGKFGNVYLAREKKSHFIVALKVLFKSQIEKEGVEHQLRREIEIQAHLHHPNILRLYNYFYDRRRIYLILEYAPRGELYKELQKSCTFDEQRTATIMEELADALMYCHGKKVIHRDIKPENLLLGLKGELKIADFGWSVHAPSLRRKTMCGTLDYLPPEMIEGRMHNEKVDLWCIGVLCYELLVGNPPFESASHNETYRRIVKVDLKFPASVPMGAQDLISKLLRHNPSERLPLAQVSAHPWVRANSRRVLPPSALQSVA

SMILES | IC50 [1] | IC50 [2] | IC50 [3]
COc1ccc2cc1CN[C@@H](CO)C(=O)N(C)CCCN(C)c1ccc(cn1)-c1ccnc(n1)N2 [Compound 11] | > 10 µM | 0.933 µM | > 10 µM
O=C1NCc2ccc(cc2)-c2ccnc(n2)Nc2ccc(N3CCOCC3)c(c2)CN2CCC1CC2 [Compound 12] | 2.29 µM | 0.49 µM | > 10 µM
O=C1NCc2cc(ccc2N2CCOCC2)Nc2nccc(n2)-c2cccc(c2)CN2CCC[C@@H]12 [Compound 15] | 2.95 µM | 0.575 µM | > 10 µM
COc1cc2cc(c1OC)CN1CCC[C@H]1C(=O)N(C)CCN(C)c1cc(ccn1)-c1ccnc(n1)N2 [Compound 17] | > 10 µM | 2.69 µM | 8.13 µM
O=C1NCc2cccc(c2)-c2ccnc(n2)Nc2ccc(N3CCOCC3)c(c2)CN[C@H]1Cc1ccccc1 [Compound 18] | > 10 µM | 0.646 µM | > 10 µM
O=C1CN2CCN(CC2)Cc2cc(ccc2N2CCOCC2)Nc2nccc(n2)-c2cccc(c2)CN1 [Compound 20] | > 10 µM | 5.25 µM | > 10 µM
COc1cc2cc(c1OC)CN1CCC[C@H]1C(=O)NCc1cccc(c1)-c1ccnc(n1)N2 [Compound 23] | > 10 µM | 0.0741 µM | > 10 µM
CN1CCN(C(=O)c2ccc3cc2CN2CCC[C@H]2C(=O)NCc2cccc(c2)-c2ccnc(n2)N3)CC1 [Compound 25] | > 10 µM | 0.0933 µM | > 10 µM
O=C1NCc2cccc(c2)-c2ccnc(n2)Nc2ccc(C(=O)N3CCOCC3)c(c2)CN2CCC[C@@H]12 [Compound 26] | > 10 µM | 0.0977 µM | > 10 µM
O=C1NCc2cccc(c2)-c2ccnc(n2)Nc2ccc(N3CCOCC3)c(c2)CN2C[C@@H](O)C[C@@H]12 [Compound 27] | > 10 µM | 0.11 µM | 1.91 µM
O=C1NCc2cccc(c2)-c2ccnc(n2)Nc2cc(cc(C(=O)N3CCOCC3)c2)CN2CCC[C@@H]12 [Compound 32] | > 10 µM | 0.178 µM | 0.55 µM
CN1CCN(C(=O)c2cc3cc(c2)Nc2nccc(n2)-c2cccc(c2)CNC(=O)[C@@H]2CCCN2C3)CC1 [Compound 34] | > 10 µM | 0.186 µM | 1.23 µM
CN(C)C(=O)c1cc2cc(c1)Nc1nccc(n1)-c1cccc(c1)CNC(=O)[C@@H]1CCCN1C2 [Compound 35] | > 10 µM | 0.204 µM | 0.288 µM
O=C(NC1CCOCC1)c1cc2cc(c1)Nc1nccc(n1)-c1cccc(c1)CNC(=O)[C@@H]1CCCN1C2 [Compound 37] | 4.9 µM | 0.245 µM | 5.37 µM

More lines, now with the values ahead:

IC50 [1] | IC50 [2] | IC50 [3] | SMILES
> 10 µM | 0.263 µM | 1.66 µM | CN1CCC(NC(=O)c2cc3cc(c2)Nc2nccc(n2)-c2cccc(c2)CNC(=O)[C@@H]2CCCN2C3)CC1 [Compound 38]
> 10 µM | 0.282 µM | 1.45 µM | CN(C)CCNC(=O)c1cc2cc(c1)Nc1nccc(n1)-c1cccc(c1)CNC(=O)[C@@H]1CCCN1C2 [Compound 39]
> 10 µM | 0.363 µM | 0.427 µM | O=C1NCc2cc(ccc2N2CCOCC2)Nc2nccc(n2)-c2cccc(c2)CCN2CCC[C@@H]12 [Compound 43]
> 10 µM | 0.407 µM | 0.427 µM | COCCNC(=O)c1cc2cc(c1)Nc1nccc(n1)-c1cccc(c1)CNC(=O)[C@@H]1CCCN1C2 [Compound 44]
> 10 µM | 0.417 µM | 0.0708 µM | O=C1NCc2cccc(c2)-c2ccnc(n2)Nc2cccc(c2)CN2C[C@@H](O)C[C@@H]12 [Compound 45]
> 10 µM | 0.646 µM | 2 µM | CN1CCC(NC(=O)c2ccc3cc2CN2CCC[C@H]2C(=O)NCc2cccc(c2)-c2ccnc(n2)N3)CC1 [Compound 47]
> 10 µM | 5.89 µM | > 10 µM | O=C1NCc2ccc(cc2)-c2ccnc(n2)Nc2ccc(N3CCOCC3)c(c2)CN2CCC[C@@H]12 [Compound 49]
